Data taken from patent publication US12065443B2, “Compounds and pharmaceutical compositions thereof for the treatment of diseases” (priority 2017, dated 2024).

Tests used:
Assay in all cases: biochemical
[1] = target: T1, SIK1 (Homo sapiens, UniProt P57059); conditions: 33P radioactive SIK kinase assay, AMARA peptide, 10 μM ATP; read-out: SIK1 IC50
T1 construct: purchased Carna Biosciences 02-131
Procedure: (§1) The principle of the ^33P radioactive kinase assay consists in measuring the incorporated ^33P into the substrate AMARA peptide when phosphorylated by SIK1, SIK2 or SIK3 using [^33P]-g-ATP, which correlates with kinase activity.
(§2) 1% DMSO and 10 μM staurosporine final concentrations are used as negative and positive controls.
(§3) 11 μL of enzyme-substrate mixture is added on the assay plates. The reactions are started by adding 9 μL ATP mixture, consisting of non-labeled and ^33P-labeled ATP, on the assay plates.
(§4) The reactions are stopped by adding 25 μL phosphoric acid (150 mM) to the reactions.
(§5) After harvesting the kinase reactions, the filter plates are washed 6 times with phosphoric acid (75 mM). […] The top of the plates are sealed with TopSeal-A. Read-out is performed with a TopCount instrument (PerkinElmer Inc.).

[2] = target: T2, SIK2 (Homo sapiens, UniProt Q9H0K1); conditions: 33P radioactive SIK kinase assay, AMARA peptide, 10 μM ATP
T2 construct: purchased ThermoFisher Scientific PV4792
Procedure: as §1, §2, §3, §4, §5

[3] = target: T3, SIK3 (Homo sapiens, UniProt Q9Y2K2)
T3 construct: purchased SignalChem S12-11G-100
Procedure: as §1, §2, §3, §4, §5

T1 sequence (P57059 whole entry): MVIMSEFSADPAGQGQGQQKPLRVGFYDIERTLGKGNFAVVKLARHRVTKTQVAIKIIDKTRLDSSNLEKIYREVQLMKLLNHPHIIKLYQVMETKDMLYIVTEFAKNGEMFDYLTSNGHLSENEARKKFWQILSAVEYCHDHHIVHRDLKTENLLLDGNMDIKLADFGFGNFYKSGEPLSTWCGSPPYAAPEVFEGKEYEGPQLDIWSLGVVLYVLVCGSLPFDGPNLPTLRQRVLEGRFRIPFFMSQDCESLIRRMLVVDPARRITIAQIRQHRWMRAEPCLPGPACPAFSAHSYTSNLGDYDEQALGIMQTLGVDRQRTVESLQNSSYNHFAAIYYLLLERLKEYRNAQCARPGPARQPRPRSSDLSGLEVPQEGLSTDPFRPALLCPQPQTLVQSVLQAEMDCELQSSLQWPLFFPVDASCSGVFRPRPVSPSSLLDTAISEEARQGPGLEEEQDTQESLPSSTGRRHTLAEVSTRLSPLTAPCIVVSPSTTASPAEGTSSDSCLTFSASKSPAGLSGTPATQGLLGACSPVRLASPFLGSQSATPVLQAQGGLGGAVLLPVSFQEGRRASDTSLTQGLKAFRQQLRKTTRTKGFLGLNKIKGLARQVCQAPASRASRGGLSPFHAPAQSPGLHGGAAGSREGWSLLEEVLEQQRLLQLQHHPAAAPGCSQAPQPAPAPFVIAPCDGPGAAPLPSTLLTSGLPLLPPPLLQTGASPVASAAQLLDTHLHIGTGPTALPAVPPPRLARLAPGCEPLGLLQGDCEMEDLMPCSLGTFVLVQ
T3 sequence (Q9Y2K2 whole entry): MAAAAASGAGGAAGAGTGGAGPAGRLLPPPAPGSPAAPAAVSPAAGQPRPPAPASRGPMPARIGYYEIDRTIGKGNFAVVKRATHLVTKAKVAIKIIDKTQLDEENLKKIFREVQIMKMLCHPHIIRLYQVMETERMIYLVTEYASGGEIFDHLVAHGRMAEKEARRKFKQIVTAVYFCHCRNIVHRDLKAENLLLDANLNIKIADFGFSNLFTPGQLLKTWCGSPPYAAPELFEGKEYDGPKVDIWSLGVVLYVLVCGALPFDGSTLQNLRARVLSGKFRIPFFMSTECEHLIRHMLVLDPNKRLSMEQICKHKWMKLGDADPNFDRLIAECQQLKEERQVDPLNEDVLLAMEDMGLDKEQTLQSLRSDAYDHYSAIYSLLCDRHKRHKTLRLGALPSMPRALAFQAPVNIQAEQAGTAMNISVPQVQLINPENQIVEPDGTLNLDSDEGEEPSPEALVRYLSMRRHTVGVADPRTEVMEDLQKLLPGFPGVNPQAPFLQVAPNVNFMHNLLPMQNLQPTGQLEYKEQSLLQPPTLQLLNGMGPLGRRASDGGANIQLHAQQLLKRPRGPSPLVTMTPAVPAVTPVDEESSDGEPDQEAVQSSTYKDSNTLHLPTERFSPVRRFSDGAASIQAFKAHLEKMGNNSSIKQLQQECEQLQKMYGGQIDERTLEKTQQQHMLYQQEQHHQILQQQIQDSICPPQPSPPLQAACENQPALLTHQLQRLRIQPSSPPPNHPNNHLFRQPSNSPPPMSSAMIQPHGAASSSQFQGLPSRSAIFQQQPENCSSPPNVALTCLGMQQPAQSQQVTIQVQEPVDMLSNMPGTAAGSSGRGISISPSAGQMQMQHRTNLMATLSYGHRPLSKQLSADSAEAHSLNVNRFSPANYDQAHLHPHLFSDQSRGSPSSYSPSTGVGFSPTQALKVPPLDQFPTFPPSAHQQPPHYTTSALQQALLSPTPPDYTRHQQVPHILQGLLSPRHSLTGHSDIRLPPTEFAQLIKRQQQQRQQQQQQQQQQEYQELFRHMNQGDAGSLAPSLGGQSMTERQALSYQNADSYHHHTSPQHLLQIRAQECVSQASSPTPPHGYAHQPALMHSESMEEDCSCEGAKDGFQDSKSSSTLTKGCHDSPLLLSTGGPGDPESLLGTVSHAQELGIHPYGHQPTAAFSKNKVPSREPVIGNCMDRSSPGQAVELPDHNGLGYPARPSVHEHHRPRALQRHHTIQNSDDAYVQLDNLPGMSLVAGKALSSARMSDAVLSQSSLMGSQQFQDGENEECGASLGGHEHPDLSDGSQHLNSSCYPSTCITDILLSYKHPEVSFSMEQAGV
T2 sequence (Q9H0K1 whole entry): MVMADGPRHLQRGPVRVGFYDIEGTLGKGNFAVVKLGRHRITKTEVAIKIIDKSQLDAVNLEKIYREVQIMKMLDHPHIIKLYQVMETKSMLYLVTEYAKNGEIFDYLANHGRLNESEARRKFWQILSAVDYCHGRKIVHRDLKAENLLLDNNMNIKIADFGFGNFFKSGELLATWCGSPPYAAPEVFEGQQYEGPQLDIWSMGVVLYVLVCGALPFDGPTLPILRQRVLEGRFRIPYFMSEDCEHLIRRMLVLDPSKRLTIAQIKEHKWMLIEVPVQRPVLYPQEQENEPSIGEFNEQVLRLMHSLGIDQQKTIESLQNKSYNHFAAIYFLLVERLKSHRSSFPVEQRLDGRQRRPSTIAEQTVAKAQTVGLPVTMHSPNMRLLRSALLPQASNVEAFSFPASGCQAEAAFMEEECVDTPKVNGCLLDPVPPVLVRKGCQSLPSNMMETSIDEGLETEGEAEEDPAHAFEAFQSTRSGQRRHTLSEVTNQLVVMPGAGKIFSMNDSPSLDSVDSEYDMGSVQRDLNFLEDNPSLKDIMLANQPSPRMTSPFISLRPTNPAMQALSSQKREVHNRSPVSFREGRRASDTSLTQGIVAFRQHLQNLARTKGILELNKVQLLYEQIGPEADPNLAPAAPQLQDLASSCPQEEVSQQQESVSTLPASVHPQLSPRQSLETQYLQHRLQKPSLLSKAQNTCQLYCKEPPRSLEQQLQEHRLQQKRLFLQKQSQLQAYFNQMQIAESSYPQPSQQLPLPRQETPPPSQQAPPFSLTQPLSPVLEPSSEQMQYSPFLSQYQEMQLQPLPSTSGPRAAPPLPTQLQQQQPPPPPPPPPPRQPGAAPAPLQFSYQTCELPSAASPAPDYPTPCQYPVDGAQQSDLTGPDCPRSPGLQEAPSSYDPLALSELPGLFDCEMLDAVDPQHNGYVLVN

Compound | IC50 [1] [nM] | IC50 [2] [nM] | IC50 [3] [nM]
COc1cc(-n2cnc3cc(-c4cnn(C)c4)ccc32)cc(OC)c1C(=O)N[C@@H]1CCC[C@H]1O [compound 143, N-[(1R,2R)-2-hydroxycyclopentyl]-2,6-dimethoxy-4-[5-(1-methylpyrazol-4-yl)benzimidazol-1-yl]benzamide] | 100 to 500 | 10 to 100 | 10 to 100
COc1cncc(-c2ccn3c(-c4cc(OC)c(C(=O)NCC(F)(F)F)c(OC)c4)cnc3c2)c1 [compound 245, 2,6-dimethoxy-4-[7-(5-methoxy-3-pyridyl)imidazo[1,2-a]pyridin-3-yl]-N-(2,2,2-trifluoroethyl)benzamide] | 10 to 100 | 10 to 100 | 0.01 to 10
COc1cc(-n2cnc3cc(-c4cnn(C)c4)ccc32)cc(OC)c1C(=O)N1CC(CO)C1 [compound 183, [2,6-dimethoxy-4-[5-(1-methylpyrazol-4-yl)benzimidazol-1-yl]phenyl]-[3-(hydroxymethyl)azetidin-1-yl]methanone] | 100 to 500 | 100 to 500 | 100 to 500
COc1cc(-n2cnc3cc(-c4cnn(C)c4)ccc32)cc(OC)c1C(=O)Nc1ccnn1C [compound 73, 2,6-dimethoxy-N-(2-methylpyrazol-3-yl)-4-[5-(1-methylpyrazol-4-yl)benzimidazol-1-yl]benzamide] | > 500 | 100 to 500 | 100 to 500
COc1cc(-n2cnc3cc(-n4ccc(C)n4)ccc32)cc(OC)c1C(=O)NCC(F)(F)F [Cpd 154, 2,6-dimethoxy-4-[5-(3-methylpyrazol-1-yl)benzimidazol-1-yl]-N-(2,2,2-trifluoroethyl)benzamide] | 100 to 500 | 100 to 500 | 100 to 500
COc1cc(-n2cnc3cc(-c4c[nH]cn4)ccc32)cc(OC)c1C(=O)NCC(F)(F)F [compound 153, 4-[5-(1H-imidazol-4-yl)benzimidazol-1-yl]-2,6-dimethoxy-N-(2,2,2-trifluoroethyl)benzamide] | 10 to 100 | 10 to 100 | 10 to 100
COc1cc(-c2cnc3cc(-c4cnn(C)c4)ccn23)cc(OC)c1C(=O)N[C@H]1CC[C@@H]1O [compound 170] | 10 to 100 | 0.01 to 10 | 0.01 to 10
COc1cc(-n2cnc3cc(-c4cnn(C)c4)ccc32)cc(OC)c1C(=O)Nc1ccn(C)n1 [compound 81, 2,6-dimethoxy-N-(1-methylpyrazol-3-yl)-4-[5-(1-methylpyrazol-4-yl)benzimidazol-1-yl]benzamide] | 100 to 500 | 100 to 500 | 100 to 500
CCn1cc(-c2ccc3c(c2)ncn3-c2cc(OC)c(C(=O)NCCO)c(OC)c2)cn1 [compound 5, 4-[5-(1-ethylpyrazol-4-yl)benzimidazol-1-yl]-N-(2-hydroxyethyl)-2,6-dimethoxy-benzamide] | 100 to 500 | 10 to 100 | 10 to 100
COc1cc(-n2cnc3cc(-c4cnn(C)c4)ccc32)cc(OC)c1C(=O)NCCS(C)(=O)=O [compound 65, 2,6-dimethoxy-4-[5-(1-methylpyrazol-4-yl)benzimidazol-1-yl)-N-(2-methylsulfonylethyl)benzamide] | 100 to 500 | 10 to 100 | 10 to 100
COc1cc(-n2cnc3cc(-c4cnn(C)c4)ccc32)cc(OC)c1C(=O)NC(C)C#N (stereo not drawn) [compound 87, N-(1-cyanoethyl)-2,6-dimethoxy-4-[5-(1-methylpyrazol-4-yl)benzimidazol-1-yl]benzamide] | 10 to 100 | 10 to 100 | 10 to 100
COc1cc(-n2cnc3cc(-c4cnn(C)c4)ccc32)cc(OC)c1C(=O)N1CC2(COC2)C1 [compound 194] | 100 to 500 | 10 to 100 | 100 to 500
COc1cc(-n2cnc3cc(-c4cnn(C)c4)ccc32)cc(OC)c1C(=O)NCCCO [compound 63, N-(3-hydroxypropyl)-2,6-dimethoxy-4-[5-(1-methylpyrazol-4-yl)benzimidazol-1-yl]benzamide] | 100 to 500 | 10 to 100 | 10 to 100
CCC(C)NC(=O)c1c(OC)cc(-n2cnc3cc(-c4cnn(C)c4)ccc32)cc1OC (stereo not drawn) [compound 114, 2,6-dimethoxy-4-[5-(1-methylpyrazol-4-yl)benzimidazol-1-yl]-N-sec-butyl-benzamide] | 100 to 500 | 100 to 500 | 100 to 500
COc1cc(-n2cnc3cc(-c4cnn(C)c4)ccc32)cc(OC)c1C(=O)NC(C)(C)C(F)(F)F [compound 68, 2,6-dimethoxy-4-[5-(1-methylpyrazol-4-yl)benzimidazol-1-yl]-N-(2,2,2-trifluoro-1,1-dimethyl-ethyl)benzamide] | > 500 | > 500 | 100 to 500
COc1cc(-c2cnc3cc(-c4cnn(C)c4)ccn23)cc(OC)c1C(=O)NC1CS(=O)(=O)C1 [compound 130, N-(1,1-dioxothietan-3-yl)-2.6-dimethoxy-4-[7-(l-methylpyrazol-4-yl)imidazo[1,2-a]pyridin-3-yl]benzamide] | 10 to 100 | 0.01 to 10 | 10 to 100
COc1cc(-n2cnc3cc(-c4cnn(C)c4)ccc32)cc(OC)c1C(=O)NC(C)C [compound 115, N-isopropyl-2,6-dimethoxy-4-[5-(1-methylpyrazol-4-yl)benzimidazol-1-yl]benzamide] | 10 to 100 | 10 to 100 | 10 to 100
COc1cc(-n2cnc3cc(-c4cnn(C)c4)ccc32)cc(OC)c1C(=O)N1CC(C2CCOCC2)C1 [compound 191, [2,6-dimethoxy-4-[5-(1-methylpyrazol-4-yl)benzimidazol-1-yl]phenyl]-(3-tetrahydropyran-4-ylazetidin-1-yl)methanone] | 100 to 500 | 100 to 500 | 100 to 500
COc1cc(-n2cnc3cc(-c4cnn(C)c4)ccc32)cc(OC)c1C(=O)Nc1ccon1 [compound 72, N-isoxazol-3-yl-2,6-dimethoxy-4-[5-(1-methylpyrazol-4-yl)benzimidazol-1-yl]benzamide] | 10 to 100 | 10 to 100 | 10 to 100
COc1cc(-n2cnc3cc(-c4cnn(C)c4)ccc32)cc(OC)c1C(=O)N(C)CC#N [compound 74, N-(cyanomethyl)-2,6-dimethoxy-N-methyl-4-[5-(1-methylpyrazol-4-yl)benzimidazol-1-yl]benzamide] | 100 to 500 | 100 to 500 | 10 to 100
COC(=O)C1CN(C(=O)c2c(OC)cc(-c3cnc4cc(-c5cnn(C)c5)ccn34)cc2OC)C1 [compound 226, methyl 1-[2,6-dimethoxy-4-[7-(1-methylpyrazol-4-yl)imidazo[1,2-a]pyridin-3-yl]benzoyl)azetidine-3-carboxylate] | 10 to 100 | 10 to 100 | 10 to 100
COc1cc(-n2cnc3cc(-c4cnn(C)c4)ccc32)cc(OC)c1C(=O)N1CC(N2CCOCC2)C1 [compound 188, [2,6-dimethoxy-4-[5-(1-methylpyrazol-4-yl)benzimidazol-1-yl]phenyl]-(3-morpholinoazetidin-1-yl)methanone] | > 500 | > 500 | > 500
COc1cc(-c2cnc3cc(-c4cccnc4OC)ccn23)cc(OC)c1C(=O)NCC(F)(F)F [compound 250, 2,6-dimethoxy-4-[7-(2-methoxy-3-pyridyl)imidazo[1,2-a]pyridin-3-yl]-N-(2,2,2-trifluoroethyl)benzamide] | 100 to 500 | 10 to 100 | 10 to 100
COc1cc(-n2cnc3cc(-c4cnn(C)c4)ccc32)cc(OC)c1C(=O)N1CC(c2ccccc2)C1 [compound 180, [2,6-dimethoxy-4-[5-(1-methylpyrazol-4-yl)benzimidazol-1-yl]phenyl]-(3-phenylazrtidin-1-yl)methanone] | 10 to 100 | 100 to 500 | 100 to 500
COc1cc(-n2cnc3cc(-c4cnn(C)c4)ccc32)cc(OC)c1C(=O)NC1CCC[C@H]1O (stereo in doubt) [compound 140, N-[(1R,2R)-2-hydroxycyclopentyl]-2,6-dimethoxy-4-[5-(1-methylpyrazol-4-yl)benzimidazol-1-yl]benzamide] | 10 to 100 | 10 to 100 | 10 to 100
COc1cc(-n2cnc3cc(-c4cnn(C)c4)ccc32)cc(OC)c1C(=O)NC[C@H]1COCCO1 [compound 69, N-[[(2S)-1,4-dioxan-2-yl]methyl]-2,6-dimethoxy-4-[5-(1-methylpyrazol-4-yl)benzimidazol-1-yl]benzamide] | 100 to 500 | 100 to 500 | 100 to 500
COc1cc(-n2cnc3cc(-c4cnnc(C)c4)ccc32)cc(OC)c1C(=O)NCC(F)(F)F [compound 121, 2,6-dimethoxy-4-[5-(6-methylpyridazin-4-yl)benzimidazol-1-yl]-N-(2,2,2-trifluoroethyl)benzamide] | > 500 | 100 to 500 | 10 to 100
COc1cc(-n2cnc3cc(-c4nc(C)no4)ccc32)cc(OC)c1C(=O)NCC(F)(F)F [Cpd 169, 2,6-dimethoxy-4-[5-(3-methyl-1,2,4-oxadiazol-5-yl)benzimidazol-1-yl]-N-(2,2,2-trifluoroethyl)benzamide] | > 500 | > 500 | > 500
COc1cc(-n2cnc3cc(-c4cnn(C)c4)ccc32)cc(OC)c1C(=O)N1CC(N(C)C)C1 [compound 185, [2,6-dimethoxy-4-[5-(1-methylpyrazol-4-yl)benzimidazol-1-yl]phenyl]-[3-(dimethylamino)azetidin-1-yl]methanone] | 100 to 500 | 100 to 500 | > 500
